In paper PMC7496096, “Functional Characterisation of ClpP Mutations Conferring Resistance to Acyldepsipeptide Antibiotics in Firmicutes” (Chembiochem, 2020):
Values after ≈ are worked out from the molar mass of the structure shown.

Tests used:
[1] = test system: S. pneumoniae RC4; assay type: cell-based, Streptococcus pneumoniae; conditions: resistant clone of S. pneumoniae G9A; ClpP A94→G (ClpP core; β4)
Procedure: Determination of antibacterial activity: ADEP1 was purified from the culture supernatant of S. hawaiiensis NRRL 15010 as described.4 ADEPs 2, 4, 7, 9 were custom synthesised by EMC Microcollections, Tübingen, or provided by AiCuris, Wuppertal, Germany. The minimal inhibitory concentration (MIC) was determined by broth microdilution in Mueller‐Hinton broth (without cation adjustment) according to the guidelines of the Clinical Laboratory Standards Institute (CLSI).69 The inoculum was set to 5×10^4 CFU mL^−1 to allow some distance to the determined spontaneous resistance frequencies. […] All other ADEPs were used from DMSO stock solutions kept at −20 °C.
Screening for ADEP‐resistant mutants and determination of resistance rates: Single colonies of wild‐type strains grown on Mueller‐Hinton agar plates overnight were suspended in sterile saline and a final inoculum of 5×10^6 cells was spread on plates supplemented with different ADEP congeners at 4× and 10× the MIC. For B. subtilis strain 3xclpP, ADEP7‐containing Mueller‐Hinton agar plates were additionally supplemented with 1 mM IPTG. Resistant colonies were counted after 24 h at 37 °C and colonies were randomly chosen for MIC determinations and sequencing. Mutations in the clpP gene of the respective isolated mutants were analysed by amplifying the clpP gene (and upstream promoter region) by PCR and sequencing of the resulting PCR amplicons (LGC genomics). Sequencing data were analysed by using SnapGene software (GSL Biotech).

[2] = test system: wild-type SaClpP; experiment: Suc-LY-AMC peptide degradation by ADEP-activated ClpP; assay type: biochemical, Staphylococcus aureus; conditions: 1 μM SaClpP, 100 μM Suc-LY-AMC, 32 °C, 15 min pre-incubation; Figure 6B
Procedure: (§1) Peptide and protein degradation assays: Degradation assays with the fluorogenic peptide substrate Suc‐Leu‐Tyr‐7‐amino‐4‐methylcoumarin (Suc‐LY‐AMC) were performed in either BsClpP (50 mM Tris‐HCl, 25 mM MgCl2, 200 mM KCl, 2 mM DTT, pH 8) or SaClpP activity buffer (100 mM HEPES pH 7, 100 mM NaCl) in black, flat‐bottom‐96‐well plates (Sarstedt) with a total reaction volume of 100 μl and reaction temperatures of 32 °C and 37 °C for SaClpP and BsClpP, respectively. Purified ClpP proteins (final concentrations as indicated in the respective experiments) and ADEP2 (applied in 1 μl from a DMSO stock solution) were mixed and pre‐incubated for 15 min at reaction temperatures. […] Fluorophore release upon peptide hydrolysis was read out in a Tecan Infinite M200Pro plate reader (excitation/emission: 380/460 nm) every 30–60 s for 1 h. […] SaClpP (1 μM) and ADEP2 (concentrations as indicated) were pre‐incubated at 32 °C for 15 min before initiating the reaction by addition of FITC – casein (20 μM final concentration) and fluorescence readout (excitation/emission: 485/535 nm). In both assays, enzyme velocity was determined by linear regression of the initial segment of the fluorescence‐time plot in GraphPad Prism 5. […] Decrease of fluorescence was monitored at an emission wavelength of 535 nm in white, flat‐bottom 96‐well‐plates (Greiner). […]

[3] = test system: wild-type SaClpP; experiment: FITC-casein degradation by ADEP-activated ClpP; assay type: biochemical, Staphylococcus aureus; conditions: 1 μM SaClpP, 20 μM FITC-casein, 32 °C; Figure 6D
Procedure: as §1

In the case of `C[C@@H]1C[C@H]2C(=O)OC[C@H](NC(=O)[C@H](Cc3cc(F)cc(F)c3)NC(=O)CCC3CCCCC3)C(=O)N3CCC[C@H]3C(=O)N3CCCC[C@H]3C(=O)N[C@@H](C)C(=O)N2C1` [ADEP2], the MIC [1] is reported as 16 µg/mL (≈ 20 µM), the “concentration sufficient for full catalytic stimulation (Suc-LY-AMC degradation)” value [2] is reported as 3 µM and the “concentration sufficient for an almost maximal casein degradation rate” value [3] is reported as 3 µM.
